Here are results for 14 molecules from patent US4415574A, “Soluble N2 substituted derivatives of 2,4-diamino 5-benzyl pyrimidine, process for their preparation and medicaments containing them” (S. A. Panmedica, priority 1981, dated 1983).

Read-outs that look alike come from different tables or passages of the source.

Data set [1] deals with BACIL PUMILUS. Put plainly: Inhibiting minimum concentration (I.M.C.), activity relative to trimethoprime, MULLER HINTON BACIL PUMILUS MEDIUM. The class given is cell-based. The settings on record: for % activity with respect to the base: ratio of I.M.C. to trimethoprime; for % activity with respect to the base corrected by molecular weight: ratio to trimethoprime. The protocol:
(§1) The antibacterial activity of the derivatives according to the invention were tested in vitro by determining the inhibiting minimum concentrations (I.M.C.) on different germs.

Data set [2] concerns COLI. Put plainly: Inhibiting minimum concentration (I.M.C.), activity relative to trimethoprime, OXOIDE COLI MEDIUM 4. The class given is cell-based. As to conditions: for % activity with respect to the base: ratio of I.M.C. to trimethoprime; for % activity with respect to the base corrected by molecular weight: ratio to trimethoprime. The protocol:
as §1

A short description of data set [3]: in vivo. As to conditions: mouse.
For data set [4], the system named is COLI. Nature of the data set: Inhibiting minimum concentration (I.M.C.), activity relative to trimethoprime, MULLER HINTON COLI MEDIUM 4. The class given is cell-based. As to conditions: for % activity with respect to the base: ratio of I.M.C. to trimethoprime; for % activity to the base corrected by molecular weight: ratio to trimethoprime. Here is the method: as §1

For data set [5], the system named is dehydrofolate-reductase. As to conditions: cited from earlier work.
Data set [6] concerns bacteria. As to conditions: Gram-positive cocci, Gram-negative cocci and Gram negative bacilli; cited from earlier work.
Data set [7] is described as follows: Solubility in water / pH of aqueous solutions. The class given is physicochemical. The settings on record: pH value.

As to `COc1ccccc1C(Nc1ncc(Cc2cc(OC)c(OC)c(OC)c2)c(N)n1)S(=O)(=O)O` (stereo not drawn) [Example 15, N2 (2-Methoxy Phenyl) Methane Sulfonic Acid of 2,4-Diamino 5-(3,4,5-Trimethoxy Benzyl) Pyrimidine], the “% activity with respect to the base” value is reported as 60% in data set [1], 64% in data set [2] and 47% in data set [4]. Further, the “% activity with respect to the base corrected by molecular weight” value came to 106% in data set [1] and 107% in data set [2]. The LD50 is 1000 mg/kg in data set [3] (iv, read-out: LD 50 I.V.) and greater than 12000 mg/kg in data set [3] (po, read-out: LD 50 by mouth). In data set [4], the “% activity to the base corrected by molecular weight” value (“% activity to the base corrected” below) was 73%.
Take `COc1cc(Cc2cnc(NC(c3ccc4c(c3)OCO4)S(=O)(=O)O)nc2N)cc(OC)c1OC` (stereo not drawn) [Example 18, N2 (3,4-Dioxy Methylene Phenyl) Methane Sulfonic Acid of 2,4-Diamino 5-(3,4,5-Trimethoxy Benzyl) Pyrimidine]: the “% activity with respect to the base” value in data set [1] is listed as 21.4%; in data set [2] it was 27%; in data set [4], 14.85%. The “% activity with respect to the base corrected by molecular weight” value was determined as 38% in data set [1] and 48% in data set [2]. Further, in data set [3] (po, read-out: LD 50 by mouth), the LD50 was greater than 12000 mg/kg. For the same molecule, the “% activity to the base corrected” value in data set [4] was found to be 26%.
As to `CCOc1cc(C(Nc2ncc(Cc3cc(OC)c(OC)c(OC)c3)c(N)n2)S(=O)(=O)O)ccc1O` (stereo not drawn) [Example 24f, N2 (3-Ethoxy 4-Hydroxy) Phenyl Methane Sulfonic Acid of 5-(3,4,5-Trimethoxy Benzyl) 2,4-Diamino Pyrimidine], the “% activity with respect to the base” value in data set [1] is reported as 31.8%; in data set [2], 27.4%; in data set [4], 40.3%. For the same molecule, the entries for the “% activity with respect to the base corrected by molecular weight” value in data set [1] and in data set [2] were 73% and 63%, respectively. Moreover, the LD50 in data set [3] (iv, read-out: LD 50 I.V.) is 1000 mg/kg; in data set [3] (po, read-out: LD 50 by mouth), greater than 12000 mg/kg. The “% activity to the base corrected” value in data set [4] was 92%.
As for `COc1cc(Cc2cnc(NC(c3ccco3)S(=O)(=O)O)nc2N)cc(OC)c1OC` (stereo not drawn) [Example 19], the “% activity with respect to the base” value is 49.5% in data set [1], 58.4% in data set [2] and 69.4% in data set [4]. Besides, the “% activity with respect to the base corrected by molecular weight” value in data set [1] amounted to 80%; in data set [2], 95%. Also, the LD50 in data set [3] (iv, read-out: LD 50 I.V.) is 900 mg/kg; in data set [3] (po, read-out: LD 50 by mouth), greater than 12500 mg/kg. The “% activity to the base corrected” value in data set [4] worked out at 112%.
On to `COc1cc(Cc2cnc(N)nc2N)cc(OC)c1OC` [Trimethoprime, 5-(3,4,5-trimethoxybenzyl) 2,4diamino pyrimidine], for which the “interference with dehydrofolate-reductase (words, prior art)” value in data set [5] is on record as “interferes with dehydrofolate-reductase”. The “antibacterial activity (words, prior art)” value in data set [6] is recorded as “very wide-spectrum antibacterial agent”.
Consider `COc1cc(Cc2cnc(NC(c3ccc([N+](=O)[O-])cc3)S(=O)(=O)O)nc2N)cc(OC)c1OC` (stereo not drawn) [Example 12, N2 (4-Nitro Phenyl) Methane Sulfonic Acid of 2,4-Diamino 5-(3,4,5-Trimethoxy Benzyl) Pyrimidine], for which, in data set [1], the “% activity with respect to the base” value is on record as 11.9% and the “% activity with respect to the base corrected by molecular weight” value turned out to be 22%. For the same molecule, in data set [2], the “% activity with respect to the base” value was found to be 11.7% and the “% activity with respect to the base corrected by molecular weight” value came to 21%. In data set [4], the “% activity with respect to the base” value was found to be 18.1% and the “% activity to the base corrected” value came out at 32%.
On to `COc1cc(Cc2cnc(NC(c3ccccc3Cl)S(=O)(=O)O)nc2N)cc(OC)c1OC` (stereo not drawn) [Example 9, N2 (2-Chloro Phenyl) Methane Sulfonic Acid of 2,4-Diamino 5-(3,4,5-Trimethoxy Benzyl) Pyrimidine], for which the results for the “% activity with respect to the base” value in data set [1], in data set [2] and in data set [4] were 14.1%, 14.7% and 13.3%, respectively. Also, the “% activity with respect to the base corrected by molecular weight” value in data set [1] is on record as 25%; in data set [2], 26%. Moreover, the “% activity to the base corrected” value in data set [4] turned out to be 23%.
In the case of `COc1cc(Cc2cnc(NC(C(C)(C)C)S(=O)(=O)O)nc2N)cc(OC)c1OC` (stereo not drawn) [Example 5, N2 (2,2-Dimethyl) Propane Sulfonic Acid of 2,4-Diamino 5-(3,4,5-Trimethoxy Benzyl) Pyrimidine], in data set [1], the “% activity with respect to the base” value came to 19.4% and the “% activity with respect to the base corrected by molecular weight” value was 30%. Besides, in data set [2], the “% activity with respect to the base” value was found to be 18.4% and the “% activity with respect to the base corrected by molecular weight” value is listed as 29%. Moreover, in data set [4], the “% activity with respect to the base” value is recorded as 23.3% and the “% activity to the base corrected” value was determined as 37%.
In the case of `COc1cc(Cc2cnc(NC(c3ccccc3[N+](=O)[O-])S(=O)(=O)O)nc2N)cc(OC)c1OC` (stereo not drawn) [Example 14, N2 (2-Nitro Phenyl) Methane Sulfonic Acid of 2,4-Diamino 5-(3,4,5-Trimethoxy Benzyl) Pyrimidine], in data set [1], the “% activity with respect to the base” value worked out at 11.0% and the “% activity with respect to the base corrected by molecular weight” value was 20%. In data set [2], the “% activity with respect to the base” value amounted to 10.6% and the “% activity with respect to the base corrected by molecular weight” value turned out to be 19%. Also, in data set [4], the “% activity with respect to the base” value stood at 13.9% and the “% activity to the base corrected” value came out at 25%.
`CCC(C)C(C)C(Nc1ncc(Cc2cc(OC)c(OC)c(OC)c2)c(N)n1)S(=O)(=O)O` (stereo not drawn) [Example 6, N2 (2,3-Dimethyl) Pentane Sulfonic Acid of 2,4-Diamino 5-(3,4,5-Trimethoxy Benzyl) Pyrimidine]: in data set [1], the “% activity with respect to the base” value is listed as 16.6% and the “% activity with respect to the base corrected by molecular weight” value is reported as 28%. Besides, in data set [2], the “% activity with respect to the base” value was determined as 18.8% and the “% activity with respect to the base corrected by molecular weight” value was found to be 32%. Also, in data set [4], the “% activity with respect to the base” value is 15.75% and the “% activity to the base corrected” value came out at 27%.
For the molecule `COc1cc(C(Nc2ncc(Cc3cc(OC)c(OC)c(OC)c3)c(N)n2)S(=O)(=O)O)ccc1O` (stereo not drawn) [Example 21, N2 (4-Hydroxy 3-Methoxy) Phenyl Methane Sulfonic Acid of 2,4-Diamino 5-(3,4,5-Trimethoxy Benzyl) Pyrimidine], the “% activity with respect to the base” value was found to be 34.6% in data set [1], 49.8% in data set [2] and 43.3% in data set [4]. The entries for the “% activity with respect to the base corrected by molecular weight” value in data set [1] and in data set [2] were 63% and 90%, respectively. Besides, the “% activity to the base corrected” value in data set [4] amounted to 79%.
Consider `COc1cc(Cc2cnc(NC(c3cccs3)S(=O)(=O)O)nc2N)cc(OC)c1OC` (stereo not drawn) [Example 20, N2 (2-Thienyl) Methane Sulfonic Acid of 2,4-Diamino 5-(3,4,5-Trimethoxy Benzyl) Pyrimidine], for which, in data set [1], the “% activity with respect to the base” value is 83.4% and the “% activity with respect to the base corrected by molecular weight” value is 140%. Besides, in data set [2], the “% activity with respect to the base” value was 62.6% and the “% activity with respect to the base corrected by molecular weight” value came to 105%. In addition, in data set [4], the “% activity with respect to the base” value is listed as 73.5% and the “% activity to the base corrected” value amounted to 123%.
For the molecule `COc1cc(Cc2cnc(NC(c3ccccn3)S(=O)(=O)O)nc2N)cc(OC)c1OC` (stereo not drawn) [Example 22, N2 2-Pyridyl Methane Sulfonic Acid of 5-(3,4,5-Trimethoxy Benzyl) 2,4-Diamino Pyrimidine], the “pH at which the derivative is insoluble” value in data set [7] is 5.6.
Turning to `COc1cc(Cc2cnc(NCS(=O)(=O)O)nc2N)cc(OC)c1OC` [Example 1, N2 Methane Sulfonic Acid of 2,4-Diamino 5-(3,4,5-TrimethoxyBenzyl) Pyrimidine], in data set [1], the “% activity with respect to the base” value was 0.1%. Also, in data set [2], the “% activity with respect to the base” value is 17.1% and the “% activity with respect to the base corrected by molecular weight” value was found to be 24%. Moreover, in data set [4], the “% activity with respect to the base” value is 0.3% and the “% activity to the base corrected” value is on record as 0.4%.
